Earlier results on one molecule are cited in patent publication US20120134921A1, “SOLID COMPOSITIONS COMPRISING 5-AMINOLEVULINIC ACID” (Photocure ASA, priority 2009, published 2012).

The test system of one data set is dysplastic lesions. Conditions: sterile solution administered as local probe, chronic colitis rat models.
For data set [1], the system named is pre-malignant conditions in the colon. Particulars: enemas, 5-ALA hexyl ester in sterile phosphate buffered saline.

As for `CCCCCCOC(=O)CCC(=O)CN` [5-ALA hexyl ester, n-hexyl aminolevulinic acid ester], in the data set on dysplastic lesions, the “Sensitivity of detection of dysplastic lesions by fluorescence” value is 60% and the “Specificity of detection of dysplastic lesions by fluorescence” value was 51%. Further, the “More polyps detected by PDD than with white light endoscopic imaging” value in data set [1] is on record as 28%.
